This passage reports Kd results from ChEMBL document CHEMBL4321812, “Structure-based rational design of staurosporine-based fluorescent probe with broad-ranging kinase affinity for kinase panel application” (Bioorg Med Chem Lett, 2019).

For assay [1], the target named is Ribosomal protein S6 kinase alpha-5 (Homo sapiens, UniProt O75582). The assay is described as follows: Binding affinity to recombinant full-length N-terminal His-FLAG-GST-tagged RPS6KA5 (unknown origin) expressed in baculovirus infected Sf9 insect cells incubated for 1 hr by TR-FRET assay.
For assay [2], the target named is Leukocyte tyrosine kinase receptor (Homo sapiens, UniProt P29376). The assay can be described thus: Binding affinity to recombinant full-length N-terminal His-FLAG-GST-tagged LTK (unknown origin) (498 to 796 residues) expressed in baculovirus infected Sf9 insect cells incubated for 1 hr by TR-FRET assay.
Leukocyte tyrosine kinase receptor, sequence (P29376 whole entry, the tested form may be a part): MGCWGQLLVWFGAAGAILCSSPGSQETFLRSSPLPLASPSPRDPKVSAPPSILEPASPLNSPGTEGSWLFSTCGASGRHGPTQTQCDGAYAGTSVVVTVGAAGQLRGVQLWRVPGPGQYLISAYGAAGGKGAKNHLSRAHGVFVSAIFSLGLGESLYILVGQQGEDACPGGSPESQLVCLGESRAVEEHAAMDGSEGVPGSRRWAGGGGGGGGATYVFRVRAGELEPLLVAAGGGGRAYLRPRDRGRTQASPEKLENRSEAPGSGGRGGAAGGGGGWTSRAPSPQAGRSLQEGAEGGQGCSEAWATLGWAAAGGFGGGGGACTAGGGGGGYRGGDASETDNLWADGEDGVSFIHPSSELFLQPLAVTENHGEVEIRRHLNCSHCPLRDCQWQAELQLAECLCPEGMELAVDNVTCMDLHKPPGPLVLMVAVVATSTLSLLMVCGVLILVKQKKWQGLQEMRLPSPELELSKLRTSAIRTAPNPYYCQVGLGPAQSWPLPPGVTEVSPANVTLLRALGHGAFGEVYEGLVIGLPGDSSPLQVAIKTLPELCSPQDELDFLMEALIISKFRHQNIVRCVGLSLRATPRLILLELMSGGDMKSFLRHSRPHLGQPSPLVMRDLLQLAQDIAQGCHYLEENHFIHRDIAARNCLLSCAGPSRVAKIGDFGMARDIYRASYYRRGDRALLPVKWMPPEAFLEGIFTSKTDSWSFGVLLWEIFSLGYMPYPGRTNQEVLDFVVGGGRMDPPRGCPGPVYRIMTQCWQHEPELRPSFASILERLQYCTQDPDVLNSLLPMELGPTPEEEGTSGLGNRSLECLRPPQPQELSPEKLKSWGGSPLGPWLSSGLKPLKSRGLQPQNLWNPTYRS
In assay [3] the target is Calcium/calmodulin-dependent protein kinase kinase 1 (Homo sapiens, UniProt Q8N5S9). The assay is described as follows: Binding affinity to recombinant full-length N-terminal His-FLAG-GST-tagged CAMKK1 (unknown origin) expressed in baculovirus infected Sf9 insect cells incubated for 1 hr in presence of calmodulin by TR-FRET assay.
Assay [4] addresses Serine/threonine-protein kinase SIK2 (Homo sapiens, UniProt Q9H0K1). The assay can be described thus: Binding affinity to recombinant full-length N-terminal His-FLAG-GST-tagged SIK2 (unknown origin) expressed in baculovirus infected Sf9 insect cells incubated for 1 hr by TR-FRET assay.
The target in assay [5] is Mitogen-activated protein kinase kinase kinase 5 (Homo sapiens, UniProt Q99683). The assay can be described thus: Binding affinity to recombinant full-length N-terminal His-FLAG-GST-tagged MAP3K5 (unknown origin) (654 to 971 residues) expressed in baculovirus infected Sf9 insect cells incubated for 1 hr by TR-FRET assay.
Assay [6] has as its target Mitogen-activated protein kinase 10 (Homo sapiens, UniProt P53779). The assay is described as follows: Binding affinity to recombinant full-length N-terminal His-FLAG-GST-tagged MAPK10 (unknown origin) expressed in baculovirus infected Sf9 insect cells incubated for 1 hr by TR-FRET assay.
For assay [7], the target named is Serine/threonine-protein kinase 33 (Homo sapiens, UniProt Q9BYT3). The assay can be described thus: Binding affinity to recombinant full-length N-terminal His-FLAG-GST-tagged STK33 (unknown origin) expressed in baculovirus infected Sf9 insect cells incubated for 1 hr by TR-FRET assay.
The target in assay [8] is Interleukin-1 receptor-associated kinase 1 (Homo sapiens, UniProt P51617). The assay can be described thus: Binding affinity to recombinant N-terminal His-FLAG-GST-tagged IRAK1 (unknown origin) (194 to 712 residues) expressed in baculovirus infected Sf9 insect cells incubated for 1 hr by TR-FRET assay.
Assay [9] concerns the target Ribosomal protein S6 kinase beta-1 (Homo sapiens, UniProt P23443, T412E). The assay can be described thus: Binding affinity to recombinant human full length N-terminal GST-tagged RPS6KB1 T412E mutant expressed in baculovirus expression system using S6K2 peptide as substrate incubated for 1 hr by TR-FRET assay.
Assay [10] concerns the target Cyclin-C/Cyclin-dependent kinase 19 (Homo sapiens, UniProt Q9BWU1). The assay is described as follows: Binding affinity to recombinant human full length N-terminal GST-tagged CDK19 co-expressed with N-terminal GST-tagged CyclinC expressed in baculovirus expression system using RNA polymerase peptide as substrate incubated for 1 hr by TR-FRET assay.
For assay [11], the target named is Serine/threonine-protein kinase D2 (Homo sapiens, UniProt Q9BZL6). The assay is described as follows: Binding affinity to recombinant full-length N-terminal His-FLAG-tagged PRKD2 (unknown origin) expressed in baculovirus infected Sf9 insect cells incubated for 1 hr by TR-FRET assay.
Assay [12] deals with BMP-2-inducible protein kinase (Homo sapiens, UniProt Q9NSY1). The assay is described as follows: Binding affinity to recombinant full-length N-terminal His-FLAG-GST-tagged BMP2K (unknown origin) expressed in baculovirus infected Sf9 insect cells incubated for 1 hr by TR-FRET assay.
A further assay has as its target Activated CDC42 kinase 1 (Homo sapiens, UniProt Q07912). The assay can be described thus: Binding affinity to recombinant N-terminal His-FLAG-GST-tagged TNK2 (unknown origin) (110 to 476 residues) expressed in baculovirus infected Sf9 insect cells incubated for 1 hr by TR-FRET assay.
Assay [13] addresses Serine/threonine-protein kinase PLK4 (Homo sapiens, UniProt O00444). The assay is described as follows: Binding affinity to recombinant full-length N-terminal His-FLAG-GST-tagged PLK4 (unknown origin) (1 to 836 residues) expressed in baculovirus infected Sf9 insect cells incubated for 1 hr by TR-FRET assay.
Assay [14] has as its target Ribosomal protein S6 kinase alpha-1 (Homo sapiens, UniProt Q15418). The assay is described as follows: Binding affinity to recombinant full length human N-terminal GST-tagged RPS6KA1 expressed in baculovirus expression system using S6K peptide as substrate incubated for 1 hr by TR-FRET assay.
The target of assay [15] is Serine/threonine-protein kinase 32B (Homo sapiens, UniProt Q9NY57). The assay is described as follows: Binding affinity to recombinant full-length N-terminal His-FLAG-GST-tagged STK32B (unknown origin) expressed in baculovirus infected Sf9 insect cells incubated for 1 hr by TR-FRET assay.
For assay [16], the target named is Serine/threonine-protein kinase 3 (Homo sapiens, UniProt Q13188). The assay can be described thus: Binding affinity to recombinant full-length N-terminal His-FLAG-GST-tagged STK3 (unknown origin) expressed in baculovirus infected Sf9 insect cells incubated for 1 hr by TR-FRET assay.
The target in assay [17] is Tyrosine-protein kinase ITK/TSK (Homo sapiens, UniProt Q08881). The assay is described as follows: Binding affinity to recombinant human full-length N-terminal GST-tagged ITK expressed in baculovirus expression system using srctide as substrate incubated for 1 hr by TR-FRET assay.
Tyrosine-protein kinase ITK/TSK, sequence (Q08881 whole entry): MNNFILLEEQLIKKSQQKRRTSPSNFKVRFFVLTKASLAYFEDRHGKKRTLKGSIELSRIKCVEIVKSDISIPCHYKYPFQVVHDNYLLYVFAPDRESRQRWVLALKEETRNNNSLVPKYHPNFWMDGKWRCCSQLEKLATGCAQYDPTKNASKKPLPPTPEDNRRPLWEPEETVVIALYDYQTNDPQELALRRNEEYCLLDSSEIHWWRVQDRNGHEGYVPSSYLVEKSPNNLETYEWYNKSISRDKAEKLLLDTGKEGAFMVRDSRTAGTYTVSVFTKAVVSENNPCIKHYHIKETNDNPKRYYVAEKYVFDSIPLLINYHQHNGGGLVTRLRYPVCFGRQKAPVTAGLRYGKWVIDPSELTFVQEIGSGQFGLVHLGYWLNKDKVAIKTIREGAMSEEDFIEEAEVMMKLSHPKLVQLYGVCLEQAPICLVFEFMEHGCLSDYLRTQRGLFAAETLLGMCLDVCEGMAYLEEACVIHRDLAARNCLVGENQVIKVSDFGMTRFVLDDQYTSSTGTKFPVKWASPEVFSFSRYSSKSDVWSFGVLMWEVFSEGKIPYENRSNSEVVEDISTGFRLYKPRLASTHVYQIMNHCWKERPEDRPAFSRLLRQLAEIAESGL
The target in assay [18] is Dual specificity protein kinase CLK4 (Homo sapiens, UniProt Q9HAZ1). The assay is described as follows: Binding affinity to recombinant human full length N-terminal GST-tagged CLK4 expressed in baculovirus expression system incubated for 1 hr by TR-FRET assay.
The target of assay [19] is Myosin light chain kinase, smooth muscle (Homo sapiens, UniProt Q15746). The assay is described as follows: Binding affinity to recombinant full-length N-terminal His-FLAG-GST-tagged MYLK (unknown origin) (1428 to 1771 residues) expressed in baculovirus infected Sf9 insect cells incubated for 1 hr by TR-FRET assay.
Assay [20] concerns the target Serine/threonine-protein kinase 32A (Homo sapiens, UniProt Q8WU08). The assay can be described thus: Binding affinity to recombinant full-length N-terminal His-FLAG-tagged STK32A (unknown origin) expressed in baculovirus infected Sf9 insect cells incubated for 1 hr by TR-FRET assay.
Assay [21] concerns the target Tyrosine-protein kinase receptor TYRO3 (Homo sapiens, UniProt Q06418). The assay is described as follows: Binding affinity to recombinant full-length N-terminal His-FLAG-GST-tagged TYRO3 (unknown origin) expressed in baculovirus infected Sf9 insect cells incubated for 1 hr by TR-FRET assay.
Assay [22] deals with Calcium/calmodulin-dependent protein kinase kinase 2 (Homo sapiens, UniProt Q96RR4). The assay is described as follows: Binding affinity to recombinant full-length N-terminal His-FLAG-GST-tagged CAMKK2 (unknown origin) expressed in baculovirus infected Sf9 insect cells incubated for 1 hr in presence of calmodulin by TR-FRET assay.
Assay [23] deals with Serine/threonine-protein kinase MRCK alpha (Homo sapiens, UniProt Q5VT25). The assay is described as follows: Binding affinity to recombinant full-length N-terminal His-FLAG-GST-tagged CDC42BPA (unknown origin) (1 to 574 residues) expressed in baculovirus infected Sf9 insect cells incubated for 1 hr by TR-FRET assay.

Serine/threonine-protein kinase 32A, sequence (Q8WU08 whole entry): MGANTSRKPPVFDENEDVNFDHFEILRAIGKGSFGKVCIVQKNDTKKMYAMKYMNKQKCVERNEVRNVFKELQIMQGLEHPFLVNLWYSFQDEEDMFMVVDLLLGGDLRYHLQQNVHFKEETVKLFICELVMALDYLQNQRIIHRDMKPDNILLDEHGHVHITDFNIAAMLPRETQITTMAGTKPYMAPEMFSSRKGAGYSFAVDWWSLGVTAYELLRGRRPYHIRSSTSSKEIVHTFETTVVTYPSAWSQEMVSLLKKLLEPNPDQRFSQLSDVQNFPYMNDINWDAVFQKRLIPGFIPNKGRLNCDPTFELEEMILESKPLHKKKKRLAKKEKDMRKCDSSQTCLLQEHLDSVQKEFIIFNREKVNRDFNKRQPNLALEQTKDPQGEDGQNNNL
Ribosomal protein S6 kinase alpha-1, sequence (Q15418 whole entry): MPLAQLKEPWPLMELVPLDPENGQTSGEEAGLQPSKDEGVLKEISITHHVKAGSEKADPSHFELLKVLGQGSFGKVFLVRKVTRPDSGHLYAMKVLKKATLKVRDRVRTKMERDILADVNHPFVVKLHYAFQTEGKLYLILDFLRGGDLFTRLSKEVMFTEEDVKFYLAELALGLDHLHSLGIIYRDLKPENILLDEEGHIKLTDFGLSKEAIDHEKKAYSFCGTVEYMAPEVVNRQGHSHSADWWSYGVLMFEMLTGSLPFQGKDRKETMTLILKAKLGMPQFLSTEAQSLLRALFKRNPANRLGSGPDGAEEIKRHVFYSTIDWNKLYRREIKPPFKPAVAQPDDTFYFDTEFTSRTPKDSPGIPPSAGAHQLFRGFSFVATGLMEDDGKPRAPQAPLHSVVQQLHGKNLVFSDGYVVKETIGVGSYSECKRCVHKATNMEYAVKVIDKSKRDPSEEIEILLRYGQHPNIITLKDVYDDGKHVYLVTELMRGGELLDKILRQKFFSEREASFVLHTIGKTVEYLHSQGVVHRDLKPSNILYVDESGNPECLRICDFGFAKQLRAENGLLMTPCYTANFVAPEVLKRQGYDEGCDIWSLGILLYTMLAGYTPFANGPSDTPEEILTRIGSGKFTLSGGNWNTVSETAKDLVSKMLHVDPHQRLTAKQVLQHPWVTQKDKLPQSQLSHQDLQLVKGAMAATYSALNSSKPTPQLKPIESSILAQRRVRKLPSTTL
Ribosomal protein S6 kinase beta-1, sequence (P23443 whole entry T412E): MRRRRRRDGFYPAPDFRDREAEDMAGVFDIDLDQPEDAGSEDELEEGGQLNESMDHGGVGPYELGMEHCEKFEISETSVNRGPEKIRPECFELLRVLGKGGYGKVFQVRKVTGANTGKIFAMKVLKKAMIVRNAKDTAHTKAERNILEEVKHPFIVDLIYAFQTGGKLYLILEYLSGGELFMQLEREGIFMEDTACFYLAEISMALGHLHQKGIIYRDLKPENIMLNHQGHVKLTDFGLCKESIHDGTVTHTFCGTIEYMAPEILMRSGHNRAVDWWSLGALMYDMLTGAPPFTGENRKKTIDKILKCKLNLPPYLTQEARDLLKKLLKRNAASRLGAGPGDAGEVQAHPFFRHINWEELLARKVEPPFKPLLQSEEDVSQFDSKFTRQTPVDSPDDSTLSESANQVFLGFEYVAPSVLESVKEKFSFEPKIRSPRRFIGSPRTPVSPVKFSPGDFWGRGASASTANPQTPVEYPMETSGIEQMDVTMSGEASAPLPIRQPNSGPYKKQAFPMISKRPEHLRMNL
Cyclin-C/Cyclin-dependent kinase 19, sequence (Q9BWU1 whole entry): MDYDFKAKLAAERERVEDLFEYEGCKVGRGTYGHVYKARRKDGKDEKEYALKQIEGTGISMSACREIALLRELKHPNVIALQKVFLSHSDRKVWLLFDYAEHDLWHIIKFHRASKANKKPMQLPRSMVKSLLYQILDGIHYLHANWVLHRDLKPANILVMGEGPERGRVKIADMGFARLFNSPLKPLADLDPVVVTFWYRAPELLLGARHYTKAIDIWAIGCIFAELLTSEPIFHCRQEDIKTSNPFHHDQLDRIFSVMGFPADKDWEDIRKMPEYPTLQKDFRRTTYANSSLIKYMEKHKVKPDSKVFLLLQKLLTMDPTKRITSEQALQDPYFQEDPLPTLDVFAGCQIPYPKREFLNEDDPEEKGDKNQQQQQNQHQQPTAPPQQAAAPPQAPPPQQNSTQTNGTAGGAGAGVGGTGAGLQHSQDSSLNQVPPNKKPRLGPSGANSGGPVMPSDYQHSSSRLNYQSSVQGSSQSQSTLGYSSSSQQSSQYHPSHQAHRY
Cyclin-C/Cyclin-dependent kinase 19, sequence (P24863 whole entry, further chain): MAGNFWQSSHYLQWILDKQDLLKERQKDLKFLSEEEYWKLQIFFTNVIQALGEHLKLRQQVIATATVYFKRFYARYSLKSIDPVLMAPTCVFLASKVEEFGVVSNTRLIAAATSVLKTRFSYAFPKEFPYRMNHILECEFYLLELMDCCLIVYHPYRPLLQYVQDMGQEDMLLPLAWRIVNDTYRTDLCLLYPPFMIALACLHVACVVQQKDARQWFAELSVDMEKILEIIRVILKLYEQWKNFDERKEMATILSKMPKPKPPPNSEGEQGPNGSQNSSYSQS
Serine/threonine-protein kinase SIK2, sequence (Q9H0K1 whole entry, the tested form may be a part): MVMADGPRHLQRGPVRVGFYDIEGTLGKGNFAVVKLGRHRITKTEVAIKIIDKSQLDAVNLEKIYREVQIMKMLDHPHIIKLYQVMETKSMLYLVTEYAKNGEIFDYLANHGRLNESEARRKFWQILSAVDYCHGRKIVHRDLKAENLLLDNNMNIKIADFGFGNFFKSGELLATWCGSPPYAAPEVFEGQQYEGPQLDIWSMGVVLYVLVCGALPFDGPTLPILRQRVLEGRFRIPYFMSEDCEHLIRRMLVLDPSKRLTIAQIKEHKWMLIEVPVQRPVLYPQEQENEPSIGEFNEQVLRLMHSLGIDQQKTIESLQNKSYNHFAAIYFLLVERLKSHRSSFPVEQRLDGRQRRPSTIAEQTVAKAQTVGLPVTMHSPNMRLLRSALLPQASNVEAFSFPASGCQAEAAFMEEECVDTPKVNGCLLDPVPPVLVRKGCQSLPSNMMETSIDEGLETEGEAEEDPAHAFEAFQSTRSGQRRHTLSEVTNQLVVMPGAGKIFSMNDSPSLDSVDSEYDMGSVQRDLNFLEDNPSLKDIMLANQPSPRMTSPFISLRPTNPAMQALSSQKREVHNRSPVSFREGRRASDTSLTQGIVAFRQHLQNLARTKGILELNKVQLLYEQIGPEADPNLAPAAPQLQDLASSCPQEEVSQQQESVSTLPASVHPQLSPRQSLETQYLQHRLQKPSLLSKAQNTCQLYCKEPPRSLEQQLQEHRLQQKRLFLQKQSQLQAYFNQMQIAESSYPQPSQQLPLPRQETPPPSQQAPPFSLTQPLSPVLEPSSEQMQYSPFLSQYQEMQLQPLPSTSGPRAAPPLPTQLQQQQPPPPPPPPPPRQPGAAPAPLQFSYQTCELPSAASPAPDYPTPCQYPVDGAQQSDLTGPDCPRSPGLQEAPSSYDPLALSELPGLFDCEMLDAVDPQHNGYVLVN

As for `CO[C@@H]1[C@H](NCCOCCOCCOCCNC(=O)CCC2=[N+]3C(=Cc4c(C)cc(C)n4[B-]3(F)F)C=C2)C[C@H]2O[C@]1(C)n1c3ccccc3c3c4c(c5c6ccccc6n2c5c31)C(=O)NC4`, the dissociation constant Kd in [1] amounted to 345 nM; in [2] it was 193 nM; in assay [3], 11 nM; in assay [4], 4 nM; in assay [5] it was 136 nM; in assay [6] it was 315 nM. Also, the dissociation constant (Kd) is 8 nM in [7]; 299 nM in [8]; 40 nM in [9]; 259 nM in assay [10]; 79 nM in assay [11]; 24 nM in [12]. The dissociation constant Kd at Activated CDC42 kinase 1 amounted to 36 nM; in assay [13] it was 33 nM; in assay [14], 16 nM; in assay [15], 446 nM; in assay [16], 6 nM; in [17], 379 nM. Besides, the Kd is 90 nM in assay [18]; 369 nM in assay [19]; 1540 nM in assay [20]; 531 nM in [21]; 2 nM in assay [22]; 43 nM in assay [23].
`CO[C@@H]1[C@H](N(C)CCOCCOCCOCCNC(=O)CCC2=[N+]3C(=Cc4c(C)cc(C)n4[B-]3(F)F)C=C2)C[C@H]2O[C@]1(C)n1c3ccccc3c3c4c(c5c6ccccc6n2c5c31)C(=O)NC4`: the Kd was found to be 249 nM in assay [1]; 193 nM in assay [2]; 14 nM in assay [3]; 3 nM in assay [4]; 248 nM in assay [5]; 245 nM in assay [6]. In addition, the dissociation constant Kd came to 6 nM in assay [7]; 609 nM in assay [8]; 13 nM in assay [9]; 125 nM in assay [10]; 140 nM in assay [11]; 19 nM in [12]. The Kd on Activated CDC42 kinase 1 was 42 nM; in assay [13], 20 nM; in [14], 36 nM; in assay [15], 984 nM; in assay [16], 3 nM; in assay [17], 765 nM. In addition, the dissociation constant (Kd) in [18] came out at 81 nM; in assay [19], 298 nM; in [20], 1750 nM; in [21] it was 1050 nM; in assay [22], 6 nM; in assay [23], 25 nM.
